What is called EC50 is the midpoint of the concentration-response curve. One may read the IC50 as the concentration needed to halve the response being measured. As usually defined, the Ki is a dissociation constant, usually derived from enzyme kinetics or from competition with a known ligand.

Assay [1] addresses T1, Human 5-HT1A Receptor (Homo sapiens, UniProt P08908).
T1 construct: expressed in transfected cells; host or cells: CHO cells (Chinese hamster ovary), stably transfected
T1 sequence (P08908 1-422): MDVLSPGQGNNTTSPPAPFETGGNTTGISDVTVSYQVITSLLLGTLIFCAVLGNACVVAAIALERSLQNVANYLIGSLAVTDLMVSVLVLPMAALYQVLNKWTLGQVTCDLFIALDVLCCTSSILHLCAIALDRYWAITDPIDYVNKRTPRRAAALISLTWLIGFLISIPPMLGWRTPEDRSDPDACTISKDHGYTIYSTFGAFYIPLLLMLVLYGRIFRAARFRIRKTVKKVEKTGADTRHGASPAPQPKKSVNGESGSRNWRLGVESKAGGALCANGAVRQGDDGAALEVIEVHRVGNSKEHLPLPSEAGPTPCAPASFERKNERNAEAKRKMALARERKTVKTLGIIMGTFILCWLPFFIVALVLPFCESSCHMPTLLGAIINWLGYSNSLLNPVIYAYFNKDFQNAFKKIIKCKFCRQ
The assay is described as follows: cAMP radioimmunoassay (RIA) in human 5-HT1A receptor cell line, inhibition of forskolin stimulated cAMP. In kind it is cell-based. The settings on record: forskolin (1 μM) stimulated cAMP, stably transfected CHO cells; read-out: h5HT1A cAMP EC50 (nM) (Example 19). The procedure: Certain effects of 5-HT (e.g., certain effects mediated by the interaction of 5-HT with the 5-HT1A receptor) are mediated by cAMP. To test the ability of compounds described herein to modulate cAMP, a radioimmunoassay (RIA) method was used. Briefly, stably transfected CHO cells were grown in DMEM containing 10% heat inactivated FBS and non-essential amino acids. The cells were plated at a density of 10^6 cells per well in a 96-well plate and incubated for 2 days in a CO2 incubator. On the second day, the medium was replaced with 0.1 ml Krebs and incubated 15 minutes at 37° C. The medium was then replaced with Krebs buffer containing 500 μM isobutylmethylxanthine (IBMX) and incubated for approximately 5 minutes at 37° C. Wells were treated with forskolin (1 μM final concentration) followed immediately by test compound (0.1 and 1 μM for the initial screen) and incubated for an additional 10 minutes at 37° C. The reaction was terminated by removal of the medium and the addition of 0.5 ml ice cold assay buffer (supplied in the RIA kit). Plates were stored at −20° C. prior to assessment of cAMP formation by RIA. The cAMP kit was obtained from Amersham (Piscataway, N.J.) and the RIA was performed as per the kit instructions. In the initial screen, percent inhibition of forskolin stimulated cAMP was measured. […] These compounds behaved as either full agonists or partial agonists. 5-HT, BMY 7378, buspirone, and 8-OH-DPAT were used as reference compounds.
All compounds tested inhibited the forskolin-stimulated increase in […].

In the next assay the target is T2, Human 5-HT Transporter (Homo sapiens, UniProt P31645).
T2 construct: endogenous in cells; host or cells: Jar cells (human carcinoma cell line), treated with staurosporine
In words: Inhibition of 3H-5-HT uptake by Jar cells possessing the human 5-HT transporter. In kind it is cell-based. The conditions noted are these: Jar cells treated with staurosporine, read-out: 5HT Uptake h5HT-T IC50 (nM) (Example 20). The procedure:
[Staurosporine greatly increases the expression of the 5-HT-Transporter.] On the day of assay, vehicle, excess of fluoxetine, or test compound was added to various wells on the plate. ^3H-5-HT was then aliquoted into all wells and the samples were incubated at 37° C. for 5 minutes. The wells were then washed with ice cold 50 mM Tris HCl (pH 7.4) buffer and aspirated to remove free ^3H-5-HT. 25 μL 0.25 M NaOH was then added to each well to lyse the cells and 75 μL scintillation cocktail (Microscint™ 20) was added prior to quantitation on a Packard TopCount® machine. Tubes with vehicle represent total possible uptake, radioactivity counted in tubes with excess fluoxetine represent nonspecific binding/uptake and were subtracted from the total possible uptake to give total possible specific uptake. This nonspecific binding (usual low in number) was then subtracted from the counts obtained in wells with various test compounds (or different concentrations of a test compound) resulting in uptake in the presence of drug. Specific uptake was then expressed as a percent of control values and was analyzed using nonlinear regression analysis (Prizm) to determine IC50 values. If the compound was active in inhibiting 5-HT uptake, its counts will be close to that obtained with fluoxetine.
This blockade, in vivo, would be expected to result in an increase in extracellular 5-HT concentrations.

Assay [2] has as its target T1, Human 5-HT1A Receptor. In words: 8-OH-DPAT binding, human 5-HT1A receptor cell line (displacement of [3H]-OHDPAT, stably transfected CHO cells). The settings on record: [3H]-OHDPAT 1.5 nM, read-out: h5HT1A Affinity Ki (nM) (Example 17). As to the method:
Affinity for the serotonin 5-HT1A receptor was established by testing each compound's ability to displace [^3H]-OHDPAT (dipropylaminotetralin) from the 5-HT1A serotonin receptor following a modification of the procedure of Hall et al., J. Neurochem. 44:1685-1696 (1985). Stably transfected Chinese hamster ovary (CHO) cells were plated and grown in Dulbecco's Modified Eagle's Medium (DMEM) containing 10% heat inactivated fetal bovine serum (FBS) and non-essential amino acids. Cells were scraped off the plate, transferred to centrifuge tubes, and washed twice by centrifugation (2000 rpm for 10 minutes at 4° C.) in buffer (50 mM Tris, pH 7.5). The resulting pellets were aliquoted and stored at −80° C. On the day of assay, the cells were thawed on ice, and re-suspended in buffer. The binding assay was performed in a 96-well microtiter plate in a total volume of about 250 μL. Non-specific binding was determined in the presence of 10 μM 5-HT; the final radio ligand concentration was 1.5 nM. Following a 30 minute incubation at room temperature, the reaction was terminated by the addition of ice cold buffer and rapid filtration through a GF/B filter presoaked for 30 minutes in 0.5% polyethyleneimine (PEI). Compounds were initially tested in a single point assay to determine percent inhibition at 1 μM, 0.1 μM, and 0.01 μM. Subsequently, Ki values were determined for compounds defined to be active. Percent inhibition Ki was determined by RFComp (Lundon Software, Chagrin Falls, Ohio), with serotonin and 8-OH-DPAT as the reference compounds.
High affinity for the receptor is evidence of a compound's ability to directly modulate activity at the 5-HT1A receptor.

The next assay deals with T3, serotonin transporter (Rattus norvegicus, UniProt P31652).
T3 construct: frontal cortical membranes prepared from male Sprague Dawley rats; from tissue; host or cells: rat frontal cortex membranes (male Sprague Dawley)
The assay is described as follows: 3H-paroxetine binding to rat frontal cortical membranes, affinity for the serotonin transporter. The settings on record: 3H-paroxetine 0.1 nM, male Sprague Dawley rat frontal cortical membranes; read-out: 5HT Uptake r5HT-T Ki (nM) (Example 18). As to the method: A protocol similar to that used by Cheetham et al. (Neuropharmacol. 32:737-743, 1993) was used to determine the affinity of compounds for the serotonin transporter (i.e., by determining the relative ability of a compound to displace ^3H-paroxetine from male rat frontal cortical membranes). Briefly, frontal cortical membranes prepared from male Sprague Dawley rats were incubated with ^3H-paroxetine (0.1 nM) for 60 minutes at 25° C. All tubes also contained either vehicle, test compound (one to eight concentrations), or a saturating concentration of fluoxetine (10 μM) to define […]. All reactions were terminated by the addition of ice cold Tris buffer followed by rapid filtration using a Tom Tech filtration device to separate bound from free ^3H-paroxetine. Bound radioactivity was quantitated using a Wallac 1205 Beta Plate® counter. Nonlinear regression analysis was used to determine IC50 values which were converted to Ki values using the method of Cheng and Prusoff (Biochem. Pharmacol. 22: 3099-3108, 1973); […].
This affinity translates to the blockade of 5-HT uptake, i.e., the ability of a compound increase synaptic 5-HT levels and to act like an SSRI.

T2 sequence (P31645 whole entry): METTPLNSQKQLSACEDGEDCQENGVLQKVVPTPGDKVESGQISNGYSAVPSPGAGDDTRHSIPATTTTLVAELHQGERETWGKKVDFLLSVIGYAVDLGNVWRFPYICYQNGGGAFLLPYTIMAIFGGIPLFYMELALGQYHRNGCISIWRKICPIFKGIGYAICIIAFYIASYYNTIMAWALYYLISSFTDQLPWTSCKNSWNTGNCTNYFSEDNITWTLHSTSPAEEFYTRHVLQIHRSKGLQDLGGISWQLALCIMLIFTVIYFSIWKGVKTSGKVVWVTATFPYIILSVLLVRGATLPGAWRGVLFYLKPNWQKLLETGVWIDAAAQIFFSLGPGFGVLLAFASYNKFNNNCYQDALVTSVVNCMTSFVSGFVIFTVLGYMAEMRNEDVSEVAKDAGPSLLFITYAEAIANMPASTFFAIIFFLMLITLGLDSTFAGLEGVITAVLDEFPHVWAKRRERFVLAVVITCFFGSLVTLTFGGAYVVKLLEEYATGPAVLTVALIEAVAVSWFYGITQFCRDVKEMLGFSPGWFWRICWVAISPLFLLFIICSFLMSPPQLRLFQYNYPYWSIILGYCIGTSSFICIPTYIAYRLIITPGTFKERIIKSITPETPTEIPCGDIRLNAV
T3 sequence (P31652 whole entry): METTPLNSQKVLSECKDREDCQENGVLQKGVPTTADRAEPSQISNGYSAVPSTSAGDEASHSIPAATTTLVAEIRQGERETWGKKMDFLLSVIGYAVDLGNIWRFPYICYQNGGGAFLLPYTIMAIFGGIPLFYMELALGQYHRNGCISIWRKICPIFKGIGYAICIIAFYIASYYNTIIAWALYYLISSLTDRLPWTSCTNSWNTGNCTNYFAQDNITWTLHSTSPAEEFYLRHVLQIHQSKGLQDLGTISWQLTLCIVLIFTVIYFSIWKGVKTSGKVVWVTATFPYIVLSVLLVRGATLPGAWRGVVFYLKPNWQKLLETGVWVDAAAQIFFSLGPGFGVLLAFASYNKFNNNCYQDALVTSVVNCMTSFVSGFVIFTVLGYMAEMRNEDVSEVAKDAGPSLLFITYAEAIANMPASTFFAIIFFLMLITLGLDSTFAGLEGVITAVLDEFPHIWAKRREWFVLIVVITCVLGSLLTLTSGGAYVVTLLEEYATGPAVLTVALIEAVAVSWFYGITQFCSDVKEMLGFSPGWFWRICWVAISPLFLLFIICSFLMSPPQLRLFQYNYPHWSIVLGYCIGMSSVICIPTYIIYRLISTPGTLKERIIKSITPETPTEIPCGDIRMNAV

Consider `Cc1ccc2c3c(ccc2n1)OC[C@H](CNCCCCN1CCCc2ccccc21)O3` [Example 15, 4-(3,4-dihydroquinolin-1(2H)-yl)-N-{[(2S)-8-methyl-2,3-dihydro[1,4]dioxino[2,3-f]quinolin-2-yl]methyl}butan-1-amine], for which the EC50 at Human 5-HT1A Receptor [1] worked out at 9.25 nM. At Human 5-HT Transporter, the IC50 turned out to be 438 nM. The inhibitory constant (Ki) was 0.66 nM on Human 5-HT1A Receptor [2] and 11.8 nM at serotonin transporter.

For `Cc1ccc2c3c(ccc2n1)OC[C@H](CNCCCN1CCc2ccccc21)O3` [Example 5, 3-(2,3-dihydro-1H-indol-1-yl)-N-{[(2S)-8-methyl-2,3-dihydro[1,4]dioxino[2,3-f]quinolin-2-yl]methyl}propan-1-amine], the EC50 at Human 5-HT1A Receptor [1] amounted to 3.44 nM. In addition, the IC50 at Human 5-HT Transporter was found to be 180 nM. The values for the Ki at Human 5-HT1A Receptor [2] and at serotonin transporter were 0.62 nM and 21.1 nM, respectively.

`Cc1ccc2c3c(ccc2n1)OC[C@H](CNCCCN1CCCc2ccccc21)O3` [Example 1, 3-(3,4-dihydroquinolin-1(2H)-yl)-N-{[(2S)-8-methyl-2,3-dihydro[1,4]dioxino[2,3-f]quinolin-2-yl]methyl}propan-1-amine]: the EC50 on Human 5-HT1A Receptor [1] is 1.58 nM. The IC50 on Human 5-HT Transporter was 150 nM. Moreover, the Ki stood at 2.45 nM on Human 5-HT1A Receptor [2] and 13 nM on serotonin transporter.

These data come from patent US20080139546A1, “Tetrahydroquinoline, indoline, and related aniline derivatives of heterocycle-fused benzodioxan methylamines” (Wyeth, priority 2006, published 2008).
